Assay results: ChEMBL document CHEMBL4229381, “New cytokinin derivatives possess UVA and UVB photoprotective effect on human skin cells and prevent oxidative stress” (Eur J Med Chem, 2018)
The source made the active and inactive calls. No cut-off for these calls is given here.

How the values were obtained:
[1] = tested on: Triticum aestivum; test: Anti-senescent activity in leaf of Triticum aestivum cv. Hereward seedlings by measuring chlorophyll retention at 10^-4 mol/L after 4 days relative to control; assay type: functional
[2] = tested on: Amaranthus caudatus; test: Growth promoting activity in Amaranthus caudatus var. atropurpurea seeds by measuring betacyanin at 10^-4 mol/L after 48 hrs relative to control; assay type: functional
[3] = tested on: NHDF; test: Cytoprotection against phototoxicity in human NHDF cells assessed as increase in cell viability at 3.9 to 31.3 uM preincubated for 60 mins followed by 7.5 J/cm2 UVA irradiation and measured after 24 hrs by neutral red uptake assay; assay type: functional, cell-based
[4] = tested on: Nicotiana tabacum; test: Growth promoting activity in tobacco callus assessed as callus weight at 10^-5 mol/L after 4 weeks relative to control; assay type: functional
[5] = tested on: Caenorhabditis elegans; test: Protection against juglone-induced oxidative stress in Caenorhabditis elegans BA17 (fem-1) at 100 uM preincubated for 3 days followed by juglone addition measured every hour for 12 ro 14 hrs by inverted microscopic analysis; assay type: functional, organism-based
[6] = tested on: NHDF; test: Cytoprotection against phototoxicity in human NHDF cells assessed as increase in cell viability at 3.9 to 31.3 uM preincubated for 60 mins followed by 150 mJ/cm2 UVB irradiation and measured after 24 hrs by neutral red uptake assay; assay type: functional, cell-based
[7] = tested on: HaCaT; test: Cytoprotection against phototoxicity in human HaCaT cells assessed as increase in cell viability at 3.9 uM preincubated for 60 mins followed by 10 J/cm2 UVA irradiation and measured after 24 hrs by neutral red uptake assay; assay type: functional, cell-based
[8] = tested on: HaCaT; test: Cytoprotection against phototoxicity in human HaCaT cells assessed as increase in cell viability at 3.9 to 31.3 uM preincubated for 60 mins followed by 10 J/cm2 UVA irradiation and measured after 24 hrs by neutral red uptake assay; assay type: functional, cell-based
[9] = Antioxidant activity assessed as trolox equivalent of AAPH-induced radical scavenging activity at 1 uM pretreated for 15 mins followed by […] challenge measured every 3 mins over 90 mins by ORAC-FL assay; assay type: functional

| SMILES | Activity [1] | Activity [2] | Activity [3] | Activity [4] | Activity [5] | Activity [6] | Activity [7] | Activity [8] | Activity [9] |
| --- | --- | --- | --- | --- | --- | --- | --- | --- | --- |
| c1coc(CNc2ncnc3c2ncn3C2CCCO2)c1 (centres undefined) | 125% | 70% | Active | 111% | Active | Active | – | – | – |
| O=C(/C=C/c1ccc(O)c(O)c1)O[C@H](Cc1ccc(O)c(O)c1)C(=O)O | – | – | Active | – | – | Active | Active | Active | 9.14 equiv |
| Clc1nc(NCc2cccs2)c2ncn(C3CCCO3)c2n1 (centres undefined) | inactive | 101% | – | 108% | – | – | – | – | – |
